#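 Results reflect a 48-hour exposure of cells in 96-well plates to compound at five concentrations. GI50 = concentration required for 50% inhibition of growth. The concentration for full growth arrest is given as TGI.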
# Columns and labels:
# Assay in all cases: growth of human tumour cells (NCI), 48 h
# 786-0 renal = tested on: 786-0 renal
# A549 NSCLC = tested on: A549 NSCLC
# BT-549 breast = tested on: BT-549 breast
# COLO 205 colon = tested on: COLO 205 colon
# HCC-2998 colon = tested on: HCC-2998 colon
# IGROV1 ovarian = tested on: IGROV1 ovarian
# K-562 leukemia = tested on: K-562 leukemia
# NCI-H522 lung = tested on: NCI-H522 lung
# OVCAR-4 ovarian = tested on: OVCAR-4 ovarian
# SF-295 CNS = tested on: SF-295 CNS
Compound,GI50 (786-0 renal),TGI (786-0 renal),GI50 (A549 NSCLC),TGI (A549 NSCLC),GI50 (BT-549 breast),TGI (BT-549 breast),GI50 (COLO 205 colon),TGI (COLO 205 colon),GI50 (HCC-2998 colon),TGI (HCC-2998 colon),GI50 (IGROV1 ovarian),TGI (IGROV1 ovarian),GI50 (K-562 leukemia),TGI (K-562 leukemia),GI50 (NCI-H522 lung),TGI (NCI-H522 lung),GI50 (OVCAR-4 ovarian),TGI (OVCAR-4 ovarian),GI50 (SF-295 CNS),TGI (SF-295 CNS)
Cn1cc(C2=C(N3CCOCC3)C(=O)NC2=O)c2ccccc21,> 25 µM,> 25 µM,> 25 µM,> 25 µM,> 25 µM,> 25 µM,> 25 µM,> 25 µM,> 25 µM,> 25 µM,> 25 µM,> 25 µM,> 25 µM,> 25 µM,> 25 µM,> 25 µM,> 25 µM,> 25 µM,> 25 µM,> 25 µM
CCCCCCCCCCCCCCCC1=NC(C)(C)CN1C(C)C,1.59 µM,2.94 µM,1.81 µM,3.43 µM,5.12 µM,23.7 µM,1.5 µM,2.83 µM,1.35 µM,2.64 µM,1.12 µM,2.41 µM,0.448 µM,1.72 µM,1.55 µM,3.02 µM,2.04 µM,6.37 µM,1.74 µM,3.3 µM
CCN(CC)C(=S)[S][Bi]([S]C(=S)N(CC)CC)[S]C(=S)N(CC)CC,0.163 µM,0.299 µM,1.74 µM,3.27 µM,0.203 µM,0.384 µM,< 0.0208 µM,0.131 µM,1.6 µM,3.02 µM,0.577 µM,1.8 µM,0.123 µM,> 31.6 µM,0.0157 µM,0.0332 µM,0.165 µM,0.31 µM,1.73 µM,3.16 µM
Cc1cccc(Cc2cnc(NC(=O)CCc3ccc(C)o3)s2)c1,0.724 µM,> 100 µM,0.37 µM,> 100 µM,0.814 µM,> 100 µM,0.227 µM,0.716 µM,0.409 µM,> 100 µM,0.555 µM,> 100 µM,0.0541 µM,> 100 µM,0.183 µM,,1.23 µM,> 100 µM,0.195 µM,12.6 µM
Cc1ccc(Sc2cc3c(oc2=O)-c2ccccc2OC3O)cc1 (stereo unspecified),24.3 µM,51.6 µM,28.5 µM,74.8 µM,18.7 µM,37.4 µM,15 µM,36.5 µM,20.3 µM,36.6 µM,22.4 µM,49.2 µM,27.7 µM,> 100 µM,18.1 µM,38.8 µM,33.1 µM,> 100 µM,30.2 µM,67.5 µM
CCN(Cc1c(Cl)cccc1Cl)c1ccc(CO)c(Cl)c1,13.8 µM,28.1 µM,3.35 µM,20.6 µM,16.2 µM,30.4 µM,2.41 µM,11.7 µM,12.3 µM,27.6 µM,< 0.0253 µM,,0.439 µM,10.6 µM,11.1 µM,24.9 µM,0.194 µM,8.24 µM,,1.37 µM
Cc1cc(Nc2cc(N)ncn2)c(=O)n2c1C(=O)NC21CCCCC1,22.9 µM,> 100 µM,> 100 µM,> 100 µM,48.4 µM,> 100 µM,> 100 µM,> 100 µM,> 100 µM,> 100 µM,46.7 µM,> 100 µM,> 100 µM,> 100 µM,> 100 µM,> 100 µM,> 100 µM,> 100 µM,46.8 µM,> 100 µM
CC(=O)c1cc(O)c2ccccc2c1O,20 µM,35.2 µM,37.1 µM,> 100 µM,20.1 µM,37.2 µM,19 µM,34.4 µM,19.9 µM,37.1 µM,13 µM,29.3 µM,23.1 µM,67.6 µM,14.5 µM,35.4 µM,14.2 µM,41.6 µM,18.5 µM,38.8 µM
O=C1C(Cl)=C(Nc2cccc(C(F)(F)F)c2)C(=O)N1Cc1ccc(Cl)cc1,< 0.0324 µM,13.5 µM,1.13 µM,16.9 µM,0.154 µM,20.3 µM,0.867 µM,20.1 µM,0.835 µM,18.8 µM,2.76 µM,> 48.5 µM,1.33 µM,> 100 µM,2.11 µM,25.2 µM,5.32 µM,> 50.9 µM,,16.2 µM
O=C(O)C(Oc1nc(=S)[nH]c(=S)[nH]1)(c1ccc(Cl)cc1)c1ccc(Cl)cc1,,> 100 µM,,> 100 µM,,> 100 µM,,> 100 µM,,> 100 µM,,> 100 µM,,> 100 µM,,> 100 µM,,> 100 µM,,> 100 µM
COc1cc(NC(=O)C2=C(N3CCOCC3)/C(=C/c3ccc(Cl)cc3)CC2)cc(OC)c1OC,10.4 µM,33.1 µM,55.9 µM,> 100 µM,25.5 µM,> 100 µM,> 100 µM,> 100 µM,38.9 µM,> 100 µM,21.3 µM,> 100 µM,> 100 µM,> 100 µM,17.2 µM,> 100 µM,4.27 µM,> 100 µM,7.09 µM,40.7 µM
Nc1ncc(-c2cccc(S(N)(=O)=O)c2)c2scc(-c3ccc(F)c(Cl)c3)c12,6.02 µM,17 µM,6.76 µM,> 25 µM,7.69 µM,15.1 µM,5.92 µM,11.8 µM,6.7 µM,13.3 µM,6.58 µM,22.3 µM,0.705 µM,> 11.7 µM,3.74 µM,7.74 µM,6.65 µM,> 23.7 µM,5.66 µM,13.8 µM

# Reference: PubChem BioAssay (NCI)
